Species on record: Rattus norvegicus
Assay: Open TG-GATES - Regimen: Daily Repeat
Type: toxicity, organism-based, Sprague-Dawley
Design: regimen Daily Repeat, gender Male, age 6 weeks
Conditions: in vivo, po, route gavage; for APTT / Bas / Eos / Fbg / Hb / Ht / Lym / MCH / MCHC / MCV / Mono / Neu / PT / Plat / RBC / Ret / WBC: tissue Blood; for A/G / ALP / ALT / AST / BUN / CRE / Ca / Cl / DBIL / GLC / IP / K / LDH / Na / PL / RALB / TBIL / TC / TG / TP / gamma-GTP: tissue Plasma
[1] = 30 mg/kg, 72 h, dose level Middle, time 3 day
[2] = 30 mg/kg, […], dose level Middle, time 7 day
[3] = 30 mg/kg, […], dose level Middle, time 14 day
[4] = 30 mg/kg, […], dose level Middle, time 28 day
[5] = 100 mg/kg, 72 h, dose level High, time 3 day
[6] = 100 mg/kg, […], dose level High, time 7 day
[7] = 100 mg/kg, […], dose level High, time 14 day
[8] = 100 mg/kg, […], dose level High, time 28 day

## Cn1cc[nH]c1=S [METHIMAZOLE]
[1]
  TERMINAL_BW: 217 g
  APTT: 20.8 s
  Bas: 0%
  Eos: 1%
  Fbg: 340.6 mg/dL
  Hb: 14 g/dL
  Ht: 39.7%
  Lym: 84%
  MCH: 21.6 pg
  MCHC: 35.2%
  MCV: 61.2 fL
  Mono: 2%
  Neu: 12.8%
  PT: 16.5 s
  Plat: 131.6 x10_4/uL
  RBC: 648.8 x10_4/ul
  Ret: 5.4%
  WBC: 83.8 x10_2/uL
  A/G: 1.2
  ALP: 1643.6 IU/L
  ALT: 41.2 IU/L
  AST: 61 IU/L
  BUN: 14.6 mg/dL
  CRE: 0.1 mg/dL
  Ca: 11 mg/dL
  Cl: 107 meq/L
  DBIL: 0.002 mg/dL
  GLC: 178.4 mg/dL
  IP: 6.6 mg/dL
  K: 4.4 meq/L
  LDH: 260.2 IU/L
  Na: 142.4 meq/L
  PL: 173 mg/dL
  RALB: 3.3 g/dL
  TBIL: 0.012 mg/dL
  TC: 94 mg/dL
  TG: 132.8 mg/dL
  TP: 5.9 g/dL
  gamma-GTP: 1.2 IU/L
[2]
  TERMINAL_BW: 231.6 g
  APTT: 20.9 s
  Bas: 0%
  Eos: 1%
  Fbg: 335.6 mg/dL
  Hb: 15.1 g/dL
  Ht: 41.3%
  Lym: 83.6%
  MCH: 22.3 pg
  MCHC: 36.7%
  MCV: 60.7 fL
  Mono: 2%
  Neu: 12.8%
  PT: 16.9 s
  Plat: 122.3 x10_4/uL
  RBC: 680 x10_4/ul
  Ret: 3.7%
  WBC: 90.9 x10_2/uL
  A/G: 1.1
  ALP: 1563.2 IU/L
  ALT: 34.4 IU/L
  AST: 57 IU/L
  BUN: 17.2 mg/dL
  CRE: 0.2 mg/dL
  Ca: 10.7 mg/dL
  Cl: 108 meq/L
  DBIL: 0.002 mg/dL
  GLC: 166.8 mg/dL
  IP: 6.7 mg/dL
  K: 4.2 meq/L
  LDH: 248.8 IU/L
  Na: 141.8 meq/L
  PL: 169.4 mg/dL
  RALB: 3.2 g/dL
  TBIL: 0.002 mg/dL
  TC: 97 mg/dL
  TG: 105 mg/dL
  TP: 6.3 g/dL
  gamma-GTP: 1 IU/L
[3]
  TERMINAL_BW: 256 g
  APTT: 21.6 s
  Bas: 0%
  Eos: 0.2%
  Fbg: 295 mg/dL
  Hb: 14.6 g/dL
  Ht: 41.6%
  Lym: 89%
  MCH: 20.2 pg
  MCHC: 35%
  MCV: 57.6 fL
  Mono: 1%
  Neu: 8.4%
  PT: 17.5 s
  Plat: 109.2 x10_4/uL
  RBC: 721.2 x10_4/ul
  Ret: 1.6%
  WBC: 89.2 x10_2/uL
  A/G: 1.1
  ALP: 1519.4 IU/L
  ALT: 31.2 IU/L
  AST: 48 IU/L
  BUN: 22.2 mg/dL
  CRE: 0.2 mg/dL
  Ca: 10.8 mg/dL
  Cl: 106.4 meq/L
  DBIL: 0.002 mg/dL
  GLC: 175.6 mg/dL
  IP: 6.2 mg/dL
  K: 3.8 meq/L
  LDH: 190.4 IU/L
  Na: 142.6 meq/L
  PL: 169 mg/dL
  RALB: 3.4 g/dL
  TBIL: 0.018 mg/dL
  TC: 105 mg/dL
  TG: 79.6 mg/dL
  TP: 6.7 g/dL
  gamma-GTP: 1 IU/L
[4]
  TERMINAL_BW: 282.7 g
  APTT: 21.4 s
  Bas: 0%
  Eos: 0.8%
  Fbg: 290.6 mg/dL
  Hb: 15.4 g/dL
  Ht: 42.4%
  Lym: 84.4%
  MCH: 19.3 pg
  MCHC: 36.2%
  MCV: 53.3 fL
  Mono: 2%
  Neu: 12.2%
  PT: 17.4 s
  Plat: 90.1 x10_4/uL
  RBC: 796 x10_4/ul
  Ret: 1%
  WBC: 91.7 x10_2/uL
  A/G: 1
  ALP: 839.6 IU/L
  ALT: 34 IU/L
  AST: 44 IU/L
  BUN: 21.2 mg/dL
  CRE: 0.3 mg/dL
  Ca: 10.4 mg/dL
  Cl: 106.2 meq/L
  DBIL: 0.006 mg/dL
  GLC: 169.8 mg/dL
  IP: 5.3 mg/dL
  K: 3.9 meq/L
  LDH: 154.8 IU/L
  Na: 142.2 meq/L
  PL: 159.6 mg/dL
  RALB: 3.5 g/dL
  TBIL: 0.014 mg/dL
  TC: 103.2 mg/dL
  TG: 53.8 mg/dL
  TP: 6.9 g/dL
  gamma-GTP: 2 IU/L
[5]
  TERMINAL_BW: 196.1 g
  APTT: 20.2 s
  Bas: 0%
  Eos: 1%
  Fbg: 316.5 mg/dL
  Hb: 14.8 g/dL
  Ht: 41.3%
  Lym: 81.4%
  MCH: 21.8 pg
  MCHC: 35.9%
  MCV: 60.6 fL
  Mono: 2.2%
  Neu: 14.6%
  PT: 15.9 s
  Plat: 118.8 x10_4/uL
  RBC: 682.8 x10_4/ul
  Ret: 3.7%
  WBC: 59.4 x10_2/uL
  A/G: 1.2
  ALP: 1390.6 IU/L
  ALT: 34.8 IU/L
  AST: 42.2 IU/L
  BUN: 16.6 mg/dL
  CRE: 0.1 mg/dL
  Ca: 10.8 mg/dL
  Cl: 108.2 meq/L
  DBIL: 0.004 mg/dL
  GLC: 162 mg/dL
  IP: 7.1 mg/dL
  K: 3.9 meq/L
  LDH: 258.6 IU/L
  Na: 141.8 meq/L
  PL: 180.8 mg/dL
  RALB: 3.2 g/dL
  TBIL: 0.028 mg/dL
  TC: 103 mg/dL
  TG: 62.2 mg/dL
  TP: 5.9 g/dL
  gamma-GTP: 1 IU/L
[6]
  TERMINAL_BW: 231.6 g
  APTT: 20.6 s
  Bas: 0%
  Eos: 1%
  Fbg: 347.6 mg/dL
  Hb: 14.7 g/dL
  Ht: 40.3%
  Lym: 86.8%
  MCH: 21.7 pg
  MCHC: 36.4%
  MCV: 59.6 fL
  Mono: 2.2%
  Neu: 8.4%
  PT: 17.9 s
  Plat: 132.4 x10_4/uL
  RBC: 677 x10_4/ul
  Ret: 2.3%
  WBC: 73.6 x10_2/uL
  A/G: 1.1
  ALP: 1556.6 IU/L
  ALT: 30.2 IU/L
  AST: 32.4 IU/L
  BUN: 18 mg/dL
  CRE: 0.2 mg/dL
  Ca: 11.1 mg/dL
  Cl: 107.2 meq/L
  DBIL: 0.004 mg/dL
  GLC: 161.4 mg/dL
  IP: 7 mg/dL
  K: 4.1 meq/L
  LDH: 221.8 IU/L
  Na: 141.4 meq/L
  PL: 203.2 mg/dL
  RALB: 3.5 g/dL
  TBIL: 0.01 mg/dL
  TC: 120 mg/dL
  TG: 89.4 mg/dL
  TP: 6.7 g/dL
  gamma-GTP: 1.8 IU/L
[7]
  TERMINAL_BW: 234.9 g
  APTT: 20.8 s
  Bas: 0%
  Eos: 0.4%
  Fbg: 430.8 mg/dL
  Hb: 14.5 g/dL
  Ht: 40.9%
  Lym: 80.4%
  MCH: 20.4 pg
  MCHC: 35.4%
  MCV: 57.7 fL
  Mono: 2.6%
  Neu: 15%
  PT: 18.1 s
  Plat: 100.4 x10_4/uL
  RBC: 708.8 x10_4/ul
  Ret: 1.4%
  WBC: 65 x10_2/uL
  A/G: 1
  ALP: 984.4 IU/L
  ALT: 30.8 IU/L
  AST: 26.6 IU/L
  BUN: 21.6 mg/dL
  CRE: 0.3 mg/dL
  Ca: 11.1 mg/dL
  Cl: 106.4 meq/L
  DBIL: 0.006 mg/dL
  GLC: 164.8 mg/dL
  IP: 6.3 mg/dL
  K: 4 meq/L
  LDH: 182.6 IU/L
  Na: 142.6 meq/L
  PL: 201.4 mg/dL
  RALB: 3.6 g/dL
  TBIL: 0.034 mg/dL
  TC: 140.2 mg/dL
  TG: 44.4 mg/dL
  TP: 7.2 g/dL
  gamma-GTP: 2 IU/L
[8]
  TERMINAL_BW: 244.7 g
  APTT: 19.9 s
  Bas: 0%
  Eos: 0.2%
  Fbg: 298.4 mg/dL
  Hb: 14.9 g/dL
  Ht: 40.7%
  Lym: 87.4%
  MCH: 19.6 pg
  MCHC: 36.7%
  MCV: 53.4 fL
  Mono: 1.8%
  Neu: 9.4%
  PT: 18.1 s
  Plat: 77.6 x10_4/uL
  RBC: 761.4 x10_4/ul
  Ret: 0.7%
  WBC: 79.7 x10_2/uL
  A/G: 1.1
  ALP: 910 IU/L
  ALT: 33.4 IU/L
  AST: 25.8 IU/L
  BUN: 24.8 mg/dL
  CRE: 0.3 mg/dL
  Ca: 10.8 mg/dL
  Cl: 105.6 meq/L
  DBIL: 0.028 mg/dL
  GLC: 166.6 mg/dL
  IP: 5.6 mg/dL
  K: 3.5 meq/L
  LDH: 151.2 IU/L
  Na: 143.8 meq/L
  PL: 167.6 mg/dL
  RALB: 3.7 g/dL
  TBIL: 0.048 mg/dL
  TC: 110 mg/dL
  TG: 42 mg/dL
  TP: 7.2 g/dL
  gamma-GTP: 2.6 IU/L
